Measured values taken from PubChem BioAssay AID652062 (Broad Institute, 2013).
Values joined by “and” are separate entries in the source; they are usually repeats but may differ in a detail not shown here. Identical values can stand only once.

Test system: HeLa-AD8 Env / CEM-CCR5 cell fusion, luciferase
Assay: inhibitors of clade B AD8 Env fusion, dose response, cell-based, cherry-pick (AID 652062)

Compound	AC50
O=C(C[C@H]1C[C@H]2c3cc(NC(=O)c4ccc5c(c4)OCO5)ccc3O[C@H]2[C@H](CO)O1)NCc1ccc(Oc2ccccc2)cc1	15.1 µM
C[C@H](CO)N1C[C@H](C)[C@H](CN(C)S(=O)(=O)c2ccccc2)Oc2ncc(/C=C/c3ccccc3)cc2C1=O	23.8 µM and 3.07 µM
COC(=O)C1(C(=O)OC)C[C@H](c2ccc(OC)cc2)N(Cc2ccccc2OC)[C@@H]1c1cccs1	2.49 µM and 11.3 µM
